Measurements published in patent publication US20230165818A1, “COMPOSITION FOR REDUCING HEPATIC TRIGLYCERIDES AND/OR IMPROVING GLUCOSE METABOLISM” (Compagnie Gervais Danone, priority 2020, published 2023).

Experiments:
[1] = tested on: FAO rat hepatocytes; assay: Hepatic glucose production (HGP) in FAO cells; type: cell-based
Description: FAO rat hepatocytes were maintained in RPMI 1640 medium (Invitrogen) supplemented with 10% FBS. Cells were maintained in this medium 48 h before treatment. They were then serum-deprived overnight for 16 h with or without insulin (1 nM) and with HICA, HIVA or HMVA product at 10 nM, 100 nM, 1 μM, 10 μM, 100 μM and 1 mM. The cells were washed three times with PBS and incubated with phenol red- and glucose-free DMEM medium supplemented with 20 mM sodium L-lactate and 2 mM sodium pyruvate for 5 h with or without insulin and the indicated study treatment. Cell supernatant was collected, and glucose concentration was measured with the Amplex-Red Glucose assay kit accordingly to the manufacturer's instructions (Invitrogen). Cells were lysed with 50 mM NaOH, and protein concentration was determined using a BCA protein assay kit to normalize glucose production.

[2] = tested on: L6 myocytes; assay: Glucose uptake in L6 muscle cells; type: cell-based; settings: 0.01, 0.1 or 1 μM, basal and insulin conditions (FIGS. 2G and H)
Description: FIG. 2. (A) HGP of FAO cells treated with a 1 mM mixture of HICA: HIVA: HMVA at molar ratio 1:1:0.5 in basal condition. (B) HGP of FAO cells treated with a 1 mM mixture of HICA: HIVA: HMVA at molar ratio 1:1:0.5 in insulin condition. (C) HGP of FAO cells treated with 0.5 and 1 mM of HICA, leucine or combination of both in basal condition. (D) HGP of FAO cells treated with 0.5 and 1 mM of HICA, leucine or combination of both in insulin condition. (E) Glucose uptake of L6 muscle cells treated with a 0.1 or 1 μM mixture of HICA: HIVA: HMVA at molar ratio 1:1:0.5 in basal condition. (F) Glucose uptake of L6 cells treated with a 0.1 or 1 μM mixture of HICA: HIVA: HMVA at molar ratio 1:1:0.5 in insulin condition. (G) Glucose uptake of L6 cells treated with 0.01, 0.1 or 1 μM of HICA in basal condition. (H) Glucose uptake of L6 cells treated with 0.01, 0.1 or 1 μM of HICA in insulin condition.*p<0.05 versus control, **p<0.01 versus control, ***p<0.001 vs control, kp<0.05 versus Leu 0.5 mM, ^$ p<0.05 versus Leu 1 mM, ^$$ p<0.01 versus Leu 1 mM, ^$$$ p<0.001 versus Leu 1 mM. For panel C, D, G, H expressed in fold, basal and basal insulin are considered as a reference and represented by a dash line.
The Inventors elected to test the hypothesis that BCHA could exert direct effects in relevant cells. […]

CC(C)CC(O)C(=O)O (stereo not drawn) [HICA, alpha-hydroxyisocaproic acid]
effect on HGP in combination with leucine ([1]; 0.5 and 1 mM HICA combined with leucine (FIGS. 2C and D)): competed the effect of its BCAA leucine precursor | basal HGP ([1]; 0.5 and 1 mM, basal condition (FIG. 2C)): dose-dependently inhibited | insulin-suppressed HGP ([1]; 0.5 and 1 mM, insulin condition (FIG. 2D)): dose-dependently inhibited | glucose uptake, individual BCHA [2]: these effects appeared to be mostly explained by HICA
